Laboratory results from doi:10.1101/2025.07.03.662948v1 (biorxiv, 2025).

T1: MtbCBS (Mycobacterium tuberculosis cystathionine β-synthase) (Mycobacterium tuberculosis, UniProt P9WP51)
T1 sequence (P9WP51 1-464): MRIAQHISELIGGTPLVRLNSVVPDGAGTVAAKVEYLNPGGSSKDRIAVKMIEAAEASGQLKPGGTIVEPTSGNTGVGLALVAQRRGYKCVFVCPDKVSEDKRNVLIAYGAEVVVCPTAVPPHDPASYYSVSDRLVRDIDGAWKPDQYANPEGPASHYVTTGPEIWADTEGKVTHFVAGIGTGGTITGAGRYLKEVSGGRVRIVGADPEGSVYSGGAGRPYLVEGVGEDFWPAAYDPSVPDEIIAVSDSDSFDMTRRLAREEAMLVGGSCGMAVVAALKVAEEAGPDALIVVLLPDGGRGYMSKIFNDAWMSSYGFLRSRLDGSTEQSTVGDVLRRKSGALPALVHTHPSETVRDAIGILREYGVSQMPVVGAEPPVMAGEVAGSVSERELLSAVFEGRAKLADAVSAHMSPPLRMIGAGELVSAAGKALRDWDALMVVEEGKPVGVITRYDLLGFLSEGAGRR


Columns and labels:
[1] = biological target: T1, MtbCBS (Mycobacterium tuberculosis cystathionine β-synthase); test: fluorescence of PLP aldimine; type: biochemical
purified protein = substrate: N[C@@H](CS)C(=O)O; test: purified protein; details: pH 7.5; 25.0 °C

Molecule	IC50 [1] [µM]	Km (purified protein) [mM]
NOCC(=O)O [AOAA]	~100	
MtbCBS (Mycobacterium tuberculosis cystathionine β-synthase) (Mycobacterium tuberculosis H37Rv) (protein) MRIAQHISELIGGTPLVRLNSVVPDGAGTVAAKVEYLNPGGSSKDRIAVKMIEAAEASGQLKPGGTIVEPTSGNTGVGLALVAQRRGYKCVFVCPDKVSEDKRNVLIAYGAEVVVCPTAVPPHDPASYYSVSDRLVRDIDGAWKPDQYANPEGPASHYVTTGPEIWADTEGKVTHFVAGIGTGGTITGAGRYLKEVSGGRVRIVGADPEGSVYSGGAGRPYLVEGVGEDFWPAAYDPSVPDEIIAVSDSDSFDMTRRLAREEAMLVGGSCGMAVVAALKVAEEAGPDALIVVLLPDGGRGYMSKIFNDAWMSSYGFLRSRLDGSTEQSTVGDVLRRKSGALPALVHTHPSETVRDAIGILREYGVSQMPVVGAEPPVMAGEVAGSVSERELLSAVFEGRAKLADAVSAHMSPPLRMIGAGELVSAAGKALRDWDALMVVEEGKPVGVITRYDLLGFLSEGAGRR		15.47
